Experimental data: patent US7183061B2, “Method of expressing Heliothis ecdysone receptor fusion protein” (Syngenta Limited, priority 1996, dated 2007)

Target: T1, glucocorticoid/Heliothis ecdysone chimeric receptor (UniProt O18473+P04150)
T1 sequence (P04150+O18473 with tags, fused parts or gaps): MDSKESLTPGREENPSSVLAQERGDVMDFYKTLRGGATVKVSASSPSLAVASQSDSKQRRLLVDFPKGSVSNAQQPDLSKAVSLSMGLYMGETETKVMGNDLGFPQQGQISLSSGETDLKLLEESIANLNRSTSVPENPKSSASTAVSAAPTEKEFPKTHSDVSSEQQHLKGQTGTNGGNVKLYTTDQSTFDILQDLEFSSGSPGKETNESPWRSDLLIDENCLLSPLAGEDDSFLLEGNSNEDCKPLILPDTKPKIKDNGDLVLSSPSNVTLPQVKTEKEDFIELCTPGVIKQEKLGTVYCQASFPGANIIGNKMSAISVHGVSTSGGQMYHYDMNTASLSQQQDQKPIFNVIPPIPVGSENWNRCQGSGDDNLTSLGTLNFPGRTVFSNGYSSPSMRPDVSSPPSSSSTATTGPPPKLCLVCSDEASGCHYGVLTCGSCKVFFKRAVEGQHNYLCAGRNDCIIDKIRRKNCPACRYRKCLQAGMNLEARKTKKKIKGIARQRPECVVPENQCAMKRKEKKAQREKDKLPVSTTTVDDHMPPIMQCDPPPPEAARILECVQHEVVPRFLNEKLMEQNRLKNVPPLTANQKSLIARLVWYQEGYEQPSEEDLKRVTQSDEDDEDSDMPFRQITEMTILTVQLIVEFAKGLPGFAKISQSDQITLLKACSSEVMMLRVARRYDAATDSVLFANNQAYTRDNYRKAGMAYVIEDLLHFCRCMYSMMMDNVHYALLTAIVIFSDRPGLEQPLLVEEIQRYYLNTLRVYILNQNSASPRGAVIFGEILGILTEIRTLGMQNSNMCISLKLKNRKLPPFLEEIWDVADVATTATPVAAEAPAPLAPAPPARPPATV
Assay: Tobacco mesophyll protoplast GUS reporter assay with chimeric effector and p221.9GRE6
Format: cell-based, Heliothis virescens
Parameters: expressed in transfected cells; host or cells: maize protoplasts (A5); tobacco mesophyll protoplasts (A6); CHO-K1 (A7); HEK293 (A8); stably transformed tobacco plants (A9)
Conditions: tobacco protoplasts, 10 μM
Description: It is the aim in this example to show the generic application to plants of the glucocorticoid/Heliothis ecdysone chimeric receptor switch system. Tobacco shoot cultures cv. Samsun, were maintained on solidified MS medium +3% sucrose in a controlled environment room (16 hour day/8 hour night at 25° C., 55% R.H), were used as the source material for protoplasts. Leaves were sliced parallel to the mid-rib, discarding any large veins and the slices were placed in CPW13M 13% Mannitol, pH 5.6, ˜860 mmol/kg) for ˜1 hour to pre-plasmolyse the cells. This solution was replaced with enzyme mixture (0.2% Cellulase R10, 0.05% Macerozyme R10 in CPW9M (CPW13M but 9% Mannitol), pH 5.6, ˜600 mmol/kg) and incubated in the dark at 25° C. overnight (˜16 hours). Following digestion, the tissue was teased apart with forceps and any large undigested pieces were discarded. The enzyme mixture was passed through a 75 μm sieve and the filtrate was centrifuged at 600 rpm for 3.5 minutes, discarding the supernatant. The pellet was resuspended in 0.6 M sucrose solution and centrifuged at 600 rpm for 10 minutes. The floating layer of protoplasts was removed using a Pasteur pipette and diluted with CPW9M (pH 5.6, ˜560 mmol/kg). The protoplasts were again pelleted by centrifuging at 600 rpm for 3.5 minutes, resuspended in CPW9M and counted. A modified version of the PEG-mediated transformation above was carried out. […]

## CCc1ccc(C(=O)NN(C(=O)c2cc(C)cc(C)c2)C(C)(C)C)cc1 [RH5992, 3,5-dimethylbenzoic acid 1-1(1,1-dimethylethyl)-2(4-ethylbenzoyl)hydrazide]
  marker gene activity: significant elevation of marker gene activity
